Results on 11 molecules are retold here after US8546440B2, “Substituted bicyclic imidazole derivatives as gamma secretase modulators” (Janssen Pharmaceuticals, Inc., priority 2008, dated 2013).

The test system of experiment [1] is Aβ42. Put plainly: Screening for γ-secretase-modulating activity, Method 1: Aβ42 sandwich ELISA in supernatant of SKNBE2 cells carrying APP 695 wild type (Tables 12a, 12b). It counts as cell-based. The method, boiled down: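 Aβ42 levels in the supernatant were measured by ELISA with 450 nm colorimetric read-out after 18 h compound exposure of wild-type APP695 SKNBE2 cells plated one day earlier. IC50 was fitted with a 4-parameter model, either with fixed top/bottom and a Hill slope of 1, or as averaged values from % of vehicle control; WST-1 was used to flag cytotoxicity.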

The subject of experiment [2] is Aβ42. Put plainly: Demonstration of in vivo efficacy: Aβ42 lowering in brain after single oral dose (Table 13). As to conditions: mouse brain soluble fraction, ELISA, mean, compared to untreated animals. From the text:
To determine whether acute administration of an Aβ42 lowering agent would reduce Aβ42 levels in vivo, non-transgenic rodents, e.g. mice or rats were used. Alternatively, two to three month old Tg2576 mice expressing APP695 containing the “Swedish” variant can be used or a transgenic mouse model developed by Dr. Fred Van Leuven (K. U. Leuven, Belgium) and co-workers, with neuron-specific expression of a clinical mutant of the human amyloid precursor protein [V717I] (Moechars et al., 1999 J. Biol. Chem. 274, 6483). Young transgenic mice have high levels of Aβ in the brain but no detectable Aβ deposition. At approximately 6-8 months of age, the transgenic mice start to display spontaneous, progressive accumulation of β-amyloid (Aβ) in the brain, eventually resulting in amyloid plaques within the subiculum, hippocampus and cortex. Animals treated with the Aβ42 lowering agent were examined and compared to those untreated or treated with vehicle and brain levels of soluble Aβ42 and total Aβ would be quantitated by standard techniques, for example, using ELISA. Treatment periods varied from hours to days and were adjusted based on the results of the Aβ42 lowering once a time course of onset of effect could be established.
A typical protocol for measuring Aβ42 lowering in vivo is shown but it is only one of many variations that could be used to optimize the levels of detectable Aβ. For example, Aβ42 lowering compounds were formulated in 20% of Captisol® (a sulfobutyl ether of β-cyclodextrin) in water or 20% hydroxypropyl β cyclodextrin. The Aβ42 lowering agents were administered as a single oral dose or by any acceptable route of administration to overnight fasted animals. After four hours, the animals were sacrificed and Aβ42 levels were analysed.
Blood was collected by decapitation and exsanguinations in EDTA-treated collection tubes. Blood was centrifuged at 1900 g for 10 minutes at 4° C. and the plasma recovered and flash frozen for later analysis. The brain was removed from the cranium and hindbrain. The cerebellum was removed and the left and right hemisphere were separated. The left hemisphere was stored at −18° C. for quantitative analysis of test compound levels. The right hemisphere was rinsed with phosphate-buffered saline (PBS) buffer and immediately frozen on dry ice and stored at −80° C. until homogenization for biochemical assays.
Mouse brains were resuspended in 10 volumes of 0.4% DEA (diethylamine)/50 mM NaCl pH 10 (for non-transgenic animals) or 0.1% 3-[3-cholamidopropyl)-dimethyl-ammonio]-1-propanesulfonate (CHAPS) in tris buffered saline (TBS) (for transgenic animals) containing protease inhibitors (Roche-11873580001 or 04693159001) per gram of tissue, e.g. for 0.158 g brain, add 1.58 ml of 0.4% DEA. All samples were sonicated for 30 seconds on ice at 20% power output (pulse mode). Homogenates were centrifuged at 221.300×g for 50 min. The resulting high speed supernatants were then transferred to fresh tubes and were optionally further purified before the next step. A portion of the supernatant was neutralized with 10% 0.5 M Tris-HCl and this was used to quantify Aβtotal.
The obtained supernatants were purified with Water Oasis HLB reverse phase columns (Waters Corp., Milford, Mass.) to remove non-specific immunoreactive material from the brain lysates prior subsequent Aβ detection. Using a vacuum manifold, all solutions were passed through the columns at a rate of approximately 1 ml per minute, so the vacuum pressure was adjusted accordingly throughout the procedure. Columns were preconditioned with 1 ml of 100% MeOH, before equilibration with 1 ml of H2O. Non-neutralized brain lysates were loaded onto the columns. The loaded samples were then washed twice with the first wash performed with 1 ml of 5% MeOH, and the second wash with 1 ml of 30% MeOH. Finally, the Aβ was eluted from the columns and into 100×30 mm glass tubes, with a solution of 90% MeOH with 2% NH4OH. […]

Setting [3] is: Homo sapiens, Method 1, Table 12a, SKNBE2 cells carrying APP 695 wild type, compounds 18 hours, ELISA, curve top and bottom fixed to 100 and 0, hill slope 1.
Setting [4] is: Homo sapiens, Table 12b, Method 1, SKNBE2 cells carrying APP 695 wild type, cell supernatant ELISA, averaged IC50 values, percentage of control vs log concentration.

SMILES strings stand for the structures. pIC50: −log10 of the molar value.

On to `COc1cccc(-c2cn3cccc(Nc4ccc(-n5cnc(C)c5)c(OC)c4)c3n2)c1` [Compound 33], for which the pIC50 in the experiment on Aβ42 [1] (setting [3]) is 7.51; in the experiment with Aβ42 [1] (setting [4]) it was 7.57. In addition, the “Aβ42 (% Ctrl)_Mean” value with Aβ42 [2] is recorded as 80 % Ctrl.
As to `COc1cc(Nc2cccn3c(Cl)c(-c4ccc(F)cc4)nc23)ccc1-n1cnc(C)c1` [Compound 2], the figures for the pIC50 with Aβ42 [1] (setting [3]) and in the experiment on Aβ42 [1] (setting [4]) were 7.19 and 7.26, respectively. Further, the “Aβ42 (% Ctrl)_Mean” value in the experiment on Aβ42 [2] is on record as 100 % Ctrl.
In the case of `COc1nc(Nc2cccn3c(C)c(-c4ccccc4C(F)(F)F)nc23)ccc1-n1cnc(C)c1` [Compound 138], the pIC50 with Aβ42 [1] (Table 12b, Method 1, SKNBE2 cells carrying APP 695 wild type, cell supernatant ELISA, averaged IC50 values, percentage of control vs log concentration) was 8.05. Further, in the experiment with Aβ42 [2], the “Aβ42 (% Ctrl)_Mean” value is given as 65 % Ctrl.
With `COc1cc(Nc2cccn3cc(C)nc23)ccc1-n1cnc(C)c1` [Compound 50], the pIC50 in the experiment on Aβ42 [1] (setting [3]) and in the experiment with Aβ42 [1] (setting [4]) was 6.60 throughout. For the same molecule, the “Aβ42 (% Ctrl)_Mean” value in the experiment with Aβ42 [2] turned out to be 67 % Ctrl.
`COc1cc(Nc2cccn3c(C)c(-c4c(F)cccc4F)nc23)ccc1-n1cnc(C)c1` [Compound 27]: the pIC50 in the experiment on Aβ42 [1] (setting [3]) and in the experiment with Aβ42 [1] (setting [4]) was 7.60 each time. Also, the “Aβ42 (% Ctrl)_Mean” value in the experiment on Aβ42 [2] came to 59 % Ctrl.
In the case of `Cc1ncn(-c2ccc(Nc3cccn4cc(-c5ccccc5C)nc34)cc2)n1` [Compound 71], in the experiment on Aβ42 [1] (setting [3]), the pIC50 was 6.54. Also, in the experiment with Aβ42 [2], the “Aβ42 (% Ctrl)_Mean” value was 91 % Ctrl.
`COc1cc(Nc2cccn3cc(C4CCOCC4)nc23)ccc1-n1cnc(C)c1` [Compound 4]: the figures for the pIC50 in the experiment on Aβ42 [1] (setting [3]) and with Aβ42 [1] (setting [4]) were 7.28 and 7.07, respectively. Also, the “Aβ42 (% Ctrl)_Mean” value with Aβ42 [2] is 93 % Ctrl.
In the case of `COc1cc(Nc2cccn3c(C)c(-c4ccccc4)nc23)ccc1-n1cnc(C)c1` [Compound 5], the pIC50 in the experiment with Aβ42 [1] (setting [3]) is 7.85; in the experiment on Aβ42 [1] (setting [4]), 7.92. Also, the “Aβ42 (% Ctrl)_Mean” value with Aβ42 [2] is reported as 66 % Ctrl.
With `COc1cc(Nc2cccn3c(C)c(-c4ccccc4C(F)(F)F)nc23)ccc1-n1cnc(C)c1` [Compound 29], the negative-log IC50 (pIC50) in the experiment on Aβ42 [1] (setting [3]) was 8.00; in the experiment with Aβ42 [1] (setting [4]), 8.10. For the same molecule, the “Aβ42 (% Ctrl)_Mean” value in the experiment with Aβ42 [2] was 56 % Ctrl.
In the case of `COc1cc(Nc2cccn3c(C)c(-c4ccccc4Cl)nc23)ccc1-n1cnc(C)c1` [Compound 15], the figures for the pIC50 with Aβ42 [1] (setting [3]) and in the experiment with Aβ42 [1] (setting [4]) were 7.92 and 7.96, respectively. Further, in the experiment on Aβ42 [2], the “Aβ42 (% Ctrl)_Mean” value turned out to be 62 % Ctrl.
`COc1cc(Nc2cccn3cc(-c4ccc(F)cc4)nc23)ccc1-n1cnc(C)c1` [Compound 1]: the figures for the negative logarithm of the IC50 (pIC50) in the experiment with Aβ42 [1] (setting [3]) and in the experiment with Aβ42 [1] (setting [4]) were 7.00 and 7.01, respectively. For the same molecule, the “Aβ42 (% Ctrl)_Mean” value in the experiment with Aβ42 [2] amounted to 65 % Ctrl.
